According to patent US8569301B2, “6, 6-dioxo-6-thia-1, 4-diaza-naphthalenes as herbicides” (Syngenta Limited, priority 2009, dated 2013):

System: crop and representative weed species
Experiment: Example B2 herbicidal action post-emergence (Table B2)
Format: in vivo
Settings: application post-emergence, rate 500 g/ha, evaluated after 15 days, score 10 to 0; for herbicidal damage score AMARE (10=total damage to plant; 0=no damage to plant): AMARE = Amaranthus retroflexus; for herbicidal damage score ECHCG (10=total damage to plant; 0=no damage to plant): ECHCG = Echinochloa crus-galli; for herbicidal damage score IPOHE (10=total damage to plant; 0=no damage to plant): IPOHE = Ipomea hederaceae; for herbicidal damage score SETFA (10=total damage to plant; 0=no damage to plant): SETFA = Setaria faberi
Procedure: Seeds of crop and representative weed species were sown in standard soil in pots. After cultivation for 14 days under controlled conditions in a glasshouse (at 22/16° C., day/night; 16 hours light; 65% humidity), the plants were sprayed. The spray solution was prepared by dissolving the technical active ingredient in acetone containing 10.56 wt % Emulsogen EL, 42.22 wt % N-methylpyrrolidone and 2.22 wt % DPG-monoethyl ether to give a 5% stock solution. This was then diluted with water containing 0.2% (v/v) of the adjuvant X-77 to give the desired treatment concentration.
The test plants were then grown on under controlled conditions in a glasshouse (at 22/16° C., day/night; 16 hours light; 65% humidity) and watered twice daily. After 15 days the test was evaluated and the assessed scores, from 10 to 0, are tabulated in Table B2 (10=total damage to plant; 0=no damage to plant).

SMILES	herbicidal damage score AMARE (10=total damage to plant; 0=no damage to plant)	herbicidal damage score ECHCG (10=total damage to plant; 0=no damage to plant)	herbicidal damage score IPOHE (10=total damage to plant; 0=no damage to plant)	herbicidal damage score SETFA (10=total damage to plant; 0=no damage to plant)
CCCC1c2nccnc2C(O)=C(c2c(F)ccc(Br)c2Cl)S1(=O)=O (stereo not shown) [Compound E22]	7	0	7	2
CC1(C)c2nccnc2C(O)=C(c2cc(F)ccc2Cl)S1(=O)=O [Compound F3]	7	4	8	4
O=S1(=O)C(c2c(F)ccc(Br)c2Cl)=C(O)c2nccnc2C12CCCC2 [Compound F8]	5	6	8	5
C#CCC1(C)c2nccnc2C(O)=C(c2c(Cl)cccc2C(F)(F)F)S1(=O)=O (stereo not shown) [Compound F10, 7-(2-chloro-6-trifluoromethyl-phenyl)-5-methyl-6,6-dioxo-5-prop-2-ynyl-5,6-dihydro-6-thia-1,4-diaza-naphthalen-8-ol]	8	7	9	8
